The text below walks through data of patent US9035074B2, “Pyrrolo[2,3-D]pyrimidine derivatives” (Pfizer Inc., priority 2013, dated 2015).

This test concerns the target JAK3 (Homo sapiens (Human), UniProt P52333). Description: JAK Caliper Enzyme Assay at 1 mM ATP (JAK3). Type of test: biochemical.

Chain of JAK3 (P52333 whole entry, species assumed): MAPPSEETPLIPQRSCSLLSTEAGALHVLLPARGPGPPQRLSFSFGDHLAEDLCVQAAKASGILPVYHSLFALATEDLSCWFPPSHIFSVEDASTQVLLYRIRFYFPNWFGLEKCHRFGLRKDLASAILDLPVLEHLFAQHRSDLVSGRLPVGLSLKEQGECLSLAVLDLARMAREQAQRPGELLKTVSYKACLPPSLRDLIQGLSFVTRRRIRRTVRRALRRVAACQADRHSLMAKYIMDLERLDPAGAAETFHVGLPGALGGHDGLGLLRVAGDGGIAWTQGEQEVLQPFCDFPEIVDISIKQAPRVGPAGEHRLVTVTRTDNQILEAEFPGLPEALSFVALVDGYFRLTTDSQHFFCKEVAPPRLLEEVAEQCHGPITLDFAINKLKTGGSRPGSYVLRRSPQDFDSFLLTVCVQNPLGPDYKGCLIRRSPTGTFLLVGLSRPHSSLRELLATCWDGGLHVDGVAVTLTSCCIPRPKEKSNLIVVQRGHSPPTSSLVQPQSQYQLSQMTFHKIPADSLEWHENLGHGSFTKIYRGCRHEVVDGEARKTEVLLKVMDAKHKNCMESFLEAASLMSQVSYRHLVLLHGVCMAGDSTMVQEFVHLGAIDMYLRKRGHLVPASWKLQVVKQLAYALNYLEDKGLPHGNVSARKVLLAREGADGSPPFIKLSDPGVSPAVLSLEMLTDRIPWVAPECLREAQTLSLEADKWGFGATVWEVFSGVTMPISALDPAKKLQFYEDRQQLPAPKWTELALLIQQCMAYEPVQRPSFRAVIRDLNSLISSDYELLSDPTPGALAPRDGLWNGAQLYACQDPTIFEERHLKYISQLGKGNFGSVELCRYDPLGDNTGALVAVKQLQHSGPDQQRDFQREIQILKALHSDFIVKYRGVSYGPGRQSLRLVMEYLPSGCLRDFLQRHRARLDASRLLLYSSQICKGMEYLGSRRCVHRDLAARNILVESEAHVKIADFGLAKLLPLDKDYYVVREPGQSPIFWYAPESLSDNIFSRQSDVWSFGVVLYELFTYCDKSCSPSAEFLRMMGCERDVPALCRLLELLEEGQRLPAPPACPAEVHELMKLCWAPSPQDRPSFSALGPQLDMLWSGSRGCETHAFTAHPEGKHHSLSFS

For `CN(c1ncnc2[nH]ccc12)[C@H]1C[C@@H](NS(=O)(=O)C2CN(C3CC3)C2)C1` [Example 15, 1-Cyclopropyl-N-{cis-3-[methyl(7H-pyrrolo[2,3-d]pyrimidin-4-yl)amino]cyclobutyl}azetidine-3-sulfonamide], the IC50 was > 10 µM.

In the case of `Cc1ncc(S(=O)(=O)N[C@H]2C[C@@H](N(C)c3ncnc4[nH]ccc34)C2)s1` [Example 38, 2-Methyl-N-{cis-3-[methyl(7H-pyrrolo[2,3-d]pyrimidin-4-yl)amino]cyclobutyl}-1,3-thiazole-5-sulfonamide], the IC50 is > 10 µM.

As for `CN(c1ncnc2[nH]ccc12)[C@H]1C[C@@H](NS(=O)(=O)[C@H]2C[C@@H](CC#N)C2)C1` [Example 4A, cis-3-(cyanomethyl)-N-{cis-3-[methyl(7H-pyrrolo[2,3-d]pyrimidin-4-yl)amino]-cyclobutyl}cyclobutane-sulfonamide], the IC50 is > 10 µM.

In the case of `CN(c1ncnc2[nH]ccc12)[C@H]1C[C@@H](CS(=O)(=O)N2CCC(F)(F)CC2)C1` [Example 25, N-(cis-3-{[(4,4-Difluoropiperidin-1-yl)sulfonyl]methyl}cyclobutyl)-N-methyl-7H-pyrrolo[2,3-d]pyrimidin-4-amine], the IC50 was > 10 µM.

As to `CN(c1ncnc2[nH]ccc12)[C@H]1C[C@@H](NS(=O)(=O)[C@H]2C[C@](C)(CC#N)C2)C1` [Example 7B, trans-3-(cyanomethyl)-3-methyl-N-{cis-3-[methyl(7H-pyrrolo[2,3-d]pyrimidin-4-yl)amino]cyclobutyl}cyclo-butanesulfonamide], the IC50 was > 10 µM.

Consider `CN(c1ncnc2[nH]ccc12)[C@H]1C[C@@H](NS(=O)(=O)N2C[C@H]3C[C@@H](C2)O3)C1` [Example 19, N-{cis-3-[Methyl(7H-pyrrolo[2,3-d]pyrimidin-4-yl)amino]cyclobutyl}-6-oxa-3-azabicyclo[3.1.1]heptane-3-sulfonamide], for which the IC50 was > 10 µM.

As for `CN(c1ncnc2[nH]ccc12)[C@H]1C[C@@H](NS(=O)(=O)N2CC[C@@H](C#N)C2)C1` (mixture of isomers) [Example 17A, (R)- and (S)-3-Cyano-N-{cis-3-[methyl(7H-pyrrolo[2,3-d]pyrimidin-4-yl)amino]cyclobutyl}pyrrolidine-1-sulfonamide], the IC50 was > 10 µM.

For the molecule `CN(c1ncnc2[nH]ccc12)[C@H]1C[C@@H](NS(=O)(=O)[C@H]2C[C@@](C)(CC#N)C2)C1` [Example 7A, cis-3-(cyanomethyl)-3-methyl-N-{cis-3-[methyl(7H-pyrrolo[2,3-d]pyrimidin-4-yl)amino]cyclobutyl}-cyclo-butanesulfonamide], the IC50 is > 10 µM.

As to `CN(c1ncnc2[nH]ccc12)[C@H]1C[C@@H](CS(=O)(=O)CCC2CC2)C1` [Example 32, N-(cis-3-{[(2-Cyclopropylethyl)sulfonyl]methyl}cyclobutyl)-N-methyl-7H-pyrrolo[2,3-d]pyrimidin-4-amine], the IC50 is > 10 µM.

Turning to `CN(c1ncnc2[nH]ccc12)[C@H]1C[C@@H](NS(=O)(=O)[C@H]2C[C@H](CC#N)C2)C1` [Example 4B, trans-3-(cyanomethyl)-N-{cis-3-[methyl(7H-pyrrolo[2,3-d]pyrimidin-4-yl)amino]cyclobutyl}-cyclobutanesulfonamide], the IC50 is > 10 µM.

Broadly, the IC50 is the concentration that inhibits the measured activity by half. A low value points to inhibition by little substance.
